Test: xn = mol fraction of the nth substance listed

CCC(C)(C)OC + C1CCCC1
viscosity [mPa·s], 100 kPa
Settings	x1 = 0.0512	x1 = 0.1014	x1 = 0.2107	x1 = 0.3001	x1 = 0.4033	x1 = 0.5001	x1 = 0.6006	x1 = 0.7352	x1 = 0.8928	x1 = 0.9498
293.15 K	0.429	0.429	0.431	0.432	0.434	0.435	0.436	0.437	0.439	0.439
303.15 K	0.386	0.388	0.392	0.395	0.398	0.401	0.404	0.408	0.413	0.414
313.15 K	0.349	0.35	0.353	0.355	0.357	0.359	0.361	0.364	0.367	0.368

CCCCCCCCO + CC#N
viscosity [mPa·s], 101 kPa
Settings	298.15 K	303.15 K	308.15 K
x2 = 0.1277	5.028	4.029	3.493
x2 = 0.2608	3.533	3.09	2.688
x2 = 0.3381	2.848	2.53	2.203
x2 = 0.4447	2.086	1.862	1.638
x2 = 0.5793	1.427	1.282	1.151
x2 = 0.68	1.028	0.927	0.84
x2 = 0.7638	0.77	0.701	0.647
x2 = 0.8283	0.695	0.562	0.523
x2 = 0.8825	0.502	0.472	0.446
x2 = 0.9273	0.435	0.414	0.391
x2 = 0.967	0.39	0.364	0.346

CCN(CC)CCO.Cl + OCCO
viscosity [mPa·s], 101 kPa
Settings	293.15 K	298.15 K	303.15 K	308.15 K	313.15 K	318.15 K	323.15 K
x1 = 0.25	37.6	–	29.6	–	23.6	–	19.1
x1 = 0.333	–	50.45	40.68	32.04	26.28	21.97	18.51

BrC(Br)Br + N#Cc1ccccc1
298.15 K, 101 kPa
Settings	viscosity [mPa·s]
x1 = 0.1782	1.372
x1 = 0.3333	1.548
x1 = 0.4937	1.727
x1 = 0.6066	1.861
x1 = 0.7005	1.88
x1 = 0.8886	1.893

CCCCCCCCO + CO
viscosity [mPa·s], 101 kPa
Settings	298.15 K	308.15 K	318.15 K
x2 = 0.05	6.856	4.941	3.665
x2 = 0.1	6.367	4.633	3.463
x2 = 0.15	5.895	4.331	3.263
x2 = 0.2	5.44	4.035	3.065
x2 = 0.25	5.002	3.746	2.87
x2 = 0.3	4.581	3.464	2.676
x2 = 0.35	4.176	3.189	2.485
x2 = 0.4	3.789	2.921	2.296
x2 = 0.45	3.418	2.661	2.11
x2 = 0.5	3.064	2.41	1.927
x2 = 0.55	2.727	2.166	1.748
x2 = 0.6	2.408	1.933	1.573
x2 = 0.65	2.106	1.708	1.403
x2 = 0.7	1.823	1.495	1.239
x2 = 0.75	1.559	1.292	1.081
x2 = 0.8	1.314	1.101	0.9299
x2 = 0.85	1.089	0.9227	0.787
x2 = 0.9	0.8845	0.7578	0.6532
x2 = 0.95	0.7018	0.6071	0.5296

CC(=O)c1ccc(Cl)cc1 + C=CC#N
308.15 K, 101 kPa
Settings	viscosity [mPa·s]
x1 = 0.0547	0.3753
x1 = 0.1146	0.4278
x1 = 0.1793	0.4934
x1 = 0.2555	0.5751
x1 = 0.3377	0.6821
x1 = 0.4269	0.819
x1 = 0.5441	1.026
x1 = 0.6719	1.303
x1 = 0.8213	1.697

BrC(Br)Br + ClC(Cl)(Cl)Cl
Settings	viscosity [mPa·s]
298 K, 101.3 kPa, x1 = 0.1194	0.965
298 K, 101.3 kPa, x1 = 0.2186	1.037
298 K, 101.3 kPa, x1 = 0.3128	1.115
298 K, 101.3 kPa, x1 = 0.4431	1.231
298 K, 101.3 kPa, x1 = 0.5248	1.308
298 K, 101.3 kPa, x1 = 0.6217	1.397
298 K, 101.3 kPa, x1 = 0.7153	1.477
298 K, 101.3 kPa, x1 = 0.8068	1.609
298 K, 101.3 kPa, x1 = 0.8986	1.753
318 K, 101.33 kPa, x1 = 0.1597	0.8215
318 K, 101.33 kPa, x1 = 0.3179	0.9131
318 K, 101.33 kPa, x1 = 0.5191	1.056
318 K, 101.33 kPa, x1 = 0.6651	1.164
318 K, 101.33 kPa, x1 = 0.8607	1.328

C=Cc1ccccc1 + CC(=O)N(C)C
viscosity [mPa·s], 101.33 kPa
Settings	x1 = 0.109	x1 = 0.1994	x1 = 0.2958	x1 = 0.4002	x1 = 0.5004	x1 = 0.6012	x1 = 0.7027	x1 = 0.8005	x1 = 0.9015
298.15 K	0.938	0.936	0.937	0.929	0.921	0.903	0.881	0.851	0.808
303.15 K	0.874	0.873	0.872	0.863	0.857	0.841	0.821	0.795	0.753
308.15 K	0.817	0.818	0.815	0.807	0.8	0.785	0.766	0.742	0.7

CC12CC3CC(C1)CC(C)(C3)C2 + C1C[C@@H]2[C@H]3CC[C@H](C3)[C@@H]2C1
viscosity [mPa·s], 100 kPa
Settings	x1 = 0.1021	x1 = 0.2015	x1 = 0.3018	x1 = 0.4005	x1 = 0.4981	x1 = 0.602	x1 = 0.6998	x1 = 0.8051	x1 = 0.8993
293.15 K	3.147	3.237	3.335	3.436	3.513	3.592	3.657	–	3.747
298.15 K	2.841	2.922	3.002	3.084	3.151	3.22	3.273	–	3.342
303.15 K	2.582	2.65	2.717	2.787	2.847	2.904	–	–	3.002
313.15 K	2.158	2.207	2.257	2.307	2.353	–	–	2.451	2.458
323.15 K	1.796	–	–	–	1.955	1.989	2.012	–	2.046

CC(C)(C)N + COCCO
308.15 K, 101 kPa
Settings	viscosity [mPa·s]
x2 = 0.13	0.5293
x2 = 0.2516	0.6631
x2 = 0.3656	0.7913
x2 = 0.4727	0.9167
x2 = 0.5735	1.035
x2 = 0.6668	1.083
x2 = 0.7583	1.115
x2 = 0.8432	1.152
x2 = 0.9237	1.187

CCCCCCCCO + CCCCO
viscosity [mPa·s], 101 kPa
Settings	298.15 K	308.15 K	318.15 K
x2 = 0.05	7.06	5.06	3.734
x2 = 0.1	6.764	4.867	3.602
x2 = 0.15	6.475	4.678	3.472
x2 = 0.2	6.193	4.492	3.345
x2 = 0.25	5.917	4.309	3.22
x2 = 0.3	5.646	4.129	3.097
x2 = 0.35	5.382	3.953	2.975
x2 = 0.4	5.123	3.779	2.855
x2 = 0.45	4.87	3.608	2.736
x2 = 0.5	4.622	3.44	2.618
x2 = 0.55	4.38	3.275	2.502
x2 = 0.6	4.145	3.113	2.388
x2 = 0.65	3.915	2.955	2.275
x2 = 0.7	3.692	2.8	2.164
x2 = 0.75	3.476	2.649	2.055
x2 = 0.8	3.268	2.502	1.948
x2 = 0.85	3.067	2.36	1.845
x2 = 0.9	2.875	2.223	1.744
x2 = 0.95	2.693	2.092	1.648

BrC(Br)Br + C1CCCCC1
viscosity [mPa·s]
Settings	x1 = 0.1747	x1 = 0.1851	x1 = 0.3427	x1 = 0.3428	x1 = 0.5476	x1 = 0.5486	x1 = 0.6899	x1 = 0.6911	x1 = 0.8718	x1 = 0.8747
298 K, 101.3 kPa	–	0.959	–	1.071	–	1.258	1.409	–	1.67	–
318 K, 101.33 kPa	0.7236	–	0.82	–	0.9769	–	–	1.113	–	1.309

BrC(Br)Br + CCCCCCCCCO
viscosity [mPa·s], 101.3 kPa
Settings	x1 = 0.105	x1 = 0.299	x1 = 0.404	x1 = 0.504	x1 = 0.604	x1 = 0.704	x1 = 0.802	x1 = 0.903
298.15 K	7.847	5.743	5.079	4.228	3.571	2.984	2.492	2.12
303.15 K	6.517	4.87	4.38	3.693	3.151	2.669	2.266	1.963
308.15 K	5.421	4.144	3.777	3.24	2.802	2.399	2.065	1.818

From the CheMixHub viscosity set
